Measurements as given in patent US12514832B2, “Methods for using low-dose colchicine after myocardial infarction” (INSTITUT DE CARDIOLOGIE DE MONTREAL, priority 2019, dated 2026).

How the values were obtained:
[1] = tested on: high-sensitivity C-reactive protein; assay: COLCOT biomarker substudy: high-sensitivity C-reactive protein; assay type: in vivo, human
Source text: (§1) Additional prespecified exploratory end points included the change from baseline to 6 months in the high-sensitivity C-reactive protein level and the change from baseline to 12 months in the white-cell count. The C-reactive protein biomarker substudy was implemented after a protocol amendment and was optional for sites and for patients; 34 sites chose to participate in this substudy.
(§2) The analysis of the primary end point was repeated in the per-protocol population (i.e., patients without major protocol deviations). Secondary and exploratory end points expressed as time to event were analyzed similarly. The changes from baseline to follow-up were analyzed with the use of an analysis of covariance model with adjustment for baseline value, and estimates of treatment effect are presented with 95% confidence intervals.
High-sensitivity C-reactive protein was measured in a subgroup of only 207 patients at the time of randomization and 6 months later, and the median concentration at trial entry was 4.28 mg per liter. […] The adjusted geometric mean percent changes in the high-sensitivity C-reactive protein level at 6 months after myocardial infarction were −70.0% in the colchicine group and −66.6% in the placebo group, and the placebo-adjusted geometric mean percent change was −10.1% percentage points in the colchicine group (95% CI, −28.6 to 13.4) (Table 8).
(§3) In Table 8, the placebo-adjusted geometric mean percent change was obtained by exponentiating the adjusted mean difference between groups from the analysis of covariance model (based on log-transformed data), then subtracting 1 and multiplying by 100.
(§4) In addition, the C-reactive protein biomarker sub-study was implemented following a protocol amendment and was optional for sites and for patients; 34 sites accepted to participate in this substudy. There were 213 and 208 patients who provided blood samples at baseline and 6 months, respectively. Paired baseline and 6-month hs-CRP values were available in 207 patients. Clinically available white blood cell counts were obtained from 2598 patients at baseline and 1998 patients at 12 months, and paired baseline and 12-month values were available in 1972 patients. Statistical analysis was conducted on the patients who provided both baseline and follow-up data and as these were exploratory analyses, no missing data was imputed.

white blood cell count = assay: COLCOT white blood cell counts (total, lymphocytes, neutrophils); assay type: in vivo, human; settings: for Total white blood cell count, geometric mean / Total white blood cell count, Adjusted GM percent change: N=992
Source text: as §1, §2, §3, §4
Information about white-cell counts at baseline and at the 12-month follow-up were also available for a relatively small subgroup of 1972 patients. The adjusted geometric mean percent changes from baseline to 1 year in the total white-cell count were −18.8% in the colchicine group and −19.0% in the placebo group, with no significant difference between groups (0.3% percentage points; 95% CI, −2.2 to 2.7).

[2] = COLCOT safety and adverse events (safety population); assay type: in vivo, human
Protocol: All serious adverse events were recorded. The only other adverse events recorded were those that were considered to be related to the gastrointestinal system, events that were judged by the investigator to be related to colchicine or placebo, or laboratory abnormalities that had been judged by the investigator to be clinically significant.

[3] = tested on: patients with stable coronary disease; settings: LoDoCo, 0.5 mg once daily, 532 patients, not placebo-controlled; cited from earlier work
[4] = baseline to 12 months, colchicine vs placebo

With `COc1cc2c(c(OC)c1OC)-c1ccc(OC)c(=O)cc1[C@@H](NC(C)=O)CC2` [Colchicine, colchicine] the “Hs-C reactive protein, geometric mean” value ([1]; at 6 months, N=99) was 1.37 mg/L, the “Hs-C reactive protein, geometric mean” value ([1]; at Randomization (baseline), N=99) was 4.27 mg/L and the “Hs-C reactive protein, Adjusted GM percent change” value ([1]; baseline to 6 months, N=99) was −70.0%. The “Hs-C reactive protein, Placebo-adjusted GM percent change” value ([1]; baseline to 6 months, colchicine vs placebo) was −10.1%, the “reduction in the C-reactive protein level” value ([1]; over the first 6 months after myocardial infarction, in both trial groups, difference between groups not significant) was greater than 65% and the “Circulating lymphocytes, geometric mean” value (white blood cell count; at 12 months) was 1.83 10^3/μL. For the same compound, the “Circulating neutrophils, geometric mean” value (white blood cell count; at 12 months) was 3.95 10^3/μL, the “Total white blood cell count, geometric mean” value (white blood cell count; at 12 months) was 6.95 10^3/μL and the “Circulating lymphocytes, geometric mean” value (white blood cell count; at Randomization (baseline)) was 1.79 10^3/μL. The “Circulating neutrophils, geometric mean” value (white blood cell count; at Randomization (baseline)) was 5.45 10^3/μL, the “Total white blood cell count, geometric mean” value (white blood cell count; at Randomization (baseline)) was 8.54 10^3/μL and the “Circulating lymphocytes, Adjusted GM percent change” value (white blood cell count; baseline to 12 months) was 1.80%. For the same compound, the “Circulating neutrophils, Adjusted GM percent change” value (white blood cell count; baseline to 12 months) was −27.63%, the “Total white blood cell count, Adjusted GM percent change” value (white blood cell count; baseline to 12 months) was −18.81% and the “Total white blood cell count, Adjusted GM percent change” value (white blood cell count; baseline to 12 months, listed as colchicine) was −18.8%. For the same compound, the “Circulating lymphocytes, Placebo-adjusted GM percent change” value (white blood cell count; [4]) was 1.10%, the “Circulating neutrophils, Placebo-adjusted GM percent change” value (white blood cell count; [4]) was 0.45% and the “Total white blood cell count, Placebo-adjusted GM percent change” value (white blood cell count; [4]) was 0.26%. For the same compound, the “Total white blood cell count, Placebo-adjusted GM percent change” value (white blood cell count; baseline to 12 months, colchicine vs placebo, listed as colchicine) was 0.3%, the “trial regimen discontinued, percent of patients” value ([2]; at the end of the trial) was 18.4% and the “incidence of septic shock (in words)” value ([2]; colchicine vs placebo) was “did not increase the incidence of septic shock”. For the same compound, the “Cancers, excluding nonmelanoma skin cancers, number of patients” value ([2]; safety population) was 42, the “Cancers, excluding nonmelanoma skin cancers, percent” value ([2]; safety population) was 1.8% and the “Anemia, number of patients” value ([2]; safety population, N=2330) was 14. For the same compound, the “Anemia, percent” value ([2]; safety population, N=2330) was 0.6%, the “Any related adverse event, number of patients” value ([2]; safety population, N=2330) was 372 and the “Any related adverse event, percent” value ([2]; safety population, N=2330) was 16.0%. For the same compound, the “Any serious adverse event, number of patients” value ([2]; safety population, N=2330) was 383, the “Any serious adverse event, percent” value ([2]; safety population, N=2330) was 16.4% and the “Cancer, number of patients” value ([2]; safety population, N=2330) was 43. The “Cancer, percent” value ([2]; safety population, N=2330) was 1.8%, the “Diarrhea adverse event, number of patients” value ([2]; safety population, N=2330) was 225 and the “Diarrhea adverse event, percent” value ([2]; safety population, N=2330) was 9.7%. The “Flatulence adverse event, number of patients” value ([2]; safety population, N=2330) was 15, the “Flatulence adverse event, percent” value ([2]; safety population, N=2330) was 0.6% and the “Gastrointestinal adverse event, number of patients” value ([2]; safety population, N=2330) was 408. The “Gastrointestinal adverse event, percent” value ([2]; safety population, N=2330) was 17.5%, the “Gastrointestinal hemorrhage, number of patients” value ([2]; safety population, N=2330) was 7 and the “Gastrointestinal hemorrhage, percent” value ([2]; safety population, N=2330) was 0.3%. For the same compound, the “Gastrointestinal serious adverse event, number of patients” value ([2]; safety population, N=2330) was 46, the “Gastrointestinal serious adverse event, percent” value ([2]; safety population, N=2330) was 2.0% and the “Hospitalization for heart failure, number of patients” value ([2]; safety population, N=2330) was 25. For the same compound, the “Hospitalization for heart failure, percent” value ([2]; safety population, N=2330) was 1.1%, the “Infection serious adverse event, number of patients” value ([2]; safety population, N=2330) was 51 and the “Infection serious adverse event, percent” value ([2]; safety population, N=2330) was 2.2%. For the same compound, the “Leukopenia, number of patients” value ([2]; safety population, N=2330) was 2, the “Leukopenia, percent” value ([2]; safety population, N=2330) was 0.1% and the “Nausea adverse event, number of patients” value ([2]; safety population, N=2330) was 43. The “Nausea adverse event, percent” value ([2]; safety population, N=2330) was 1.8%, the “Pneumonia serious adverse event, number of patients” value ([2]; safety population, N=2330) was 21 and the “Pneumonia serious adverse event, percent” value ([2]; safety population, N=2330) was 0.9%. For the same compound, the “Septic shock serious adverse event, number of patients” value ([2]; safety population, N=2330) was 2, the “Septic shock serious adverse event, percent” value ([2]; safety population, N=2330) was 0.1% and the “Thrombocytopenia, number of patients” value ([2]; safety population, N=2330) was 3. The “Thrombocytopenia, percent” value ([2]; safety population, N=2330) was 0.1%, the “serious adverse event of myopathy” value ([2]; statins used in 99% of trial participants) was “no serious adverse event of myopathy linked to colchicine occurred” and the “cardiovascular events versus no colchicine (in words)” value [3] was “fewer cardiovascular events than those not receiving colchicine”.
